This is an account of results in ChEMBL document CHEMBL4507302, “Data for DCP probe TP-020” (2021).

Active and inactive are the calls of the source. The calls are words filed in the database; no cut-off is given here.

Experiment [1] has as its target Casein kinase I isoform alpha (Homo sapiens) (UniProt P48729). The conditions noted are these: Compound concentration 1000.0 nM.
In experiment [2] the target is Mitogen-activated protein kinase kinase kinase 5 (Homo sapiens) (UniProt Q99683). The conditions noted are these: Compound concentration 1000.0 nM.
Chain of Mitogen-activated protein kinase kinase kinase 5 (Homo sapiens) (Q99683 whole entry): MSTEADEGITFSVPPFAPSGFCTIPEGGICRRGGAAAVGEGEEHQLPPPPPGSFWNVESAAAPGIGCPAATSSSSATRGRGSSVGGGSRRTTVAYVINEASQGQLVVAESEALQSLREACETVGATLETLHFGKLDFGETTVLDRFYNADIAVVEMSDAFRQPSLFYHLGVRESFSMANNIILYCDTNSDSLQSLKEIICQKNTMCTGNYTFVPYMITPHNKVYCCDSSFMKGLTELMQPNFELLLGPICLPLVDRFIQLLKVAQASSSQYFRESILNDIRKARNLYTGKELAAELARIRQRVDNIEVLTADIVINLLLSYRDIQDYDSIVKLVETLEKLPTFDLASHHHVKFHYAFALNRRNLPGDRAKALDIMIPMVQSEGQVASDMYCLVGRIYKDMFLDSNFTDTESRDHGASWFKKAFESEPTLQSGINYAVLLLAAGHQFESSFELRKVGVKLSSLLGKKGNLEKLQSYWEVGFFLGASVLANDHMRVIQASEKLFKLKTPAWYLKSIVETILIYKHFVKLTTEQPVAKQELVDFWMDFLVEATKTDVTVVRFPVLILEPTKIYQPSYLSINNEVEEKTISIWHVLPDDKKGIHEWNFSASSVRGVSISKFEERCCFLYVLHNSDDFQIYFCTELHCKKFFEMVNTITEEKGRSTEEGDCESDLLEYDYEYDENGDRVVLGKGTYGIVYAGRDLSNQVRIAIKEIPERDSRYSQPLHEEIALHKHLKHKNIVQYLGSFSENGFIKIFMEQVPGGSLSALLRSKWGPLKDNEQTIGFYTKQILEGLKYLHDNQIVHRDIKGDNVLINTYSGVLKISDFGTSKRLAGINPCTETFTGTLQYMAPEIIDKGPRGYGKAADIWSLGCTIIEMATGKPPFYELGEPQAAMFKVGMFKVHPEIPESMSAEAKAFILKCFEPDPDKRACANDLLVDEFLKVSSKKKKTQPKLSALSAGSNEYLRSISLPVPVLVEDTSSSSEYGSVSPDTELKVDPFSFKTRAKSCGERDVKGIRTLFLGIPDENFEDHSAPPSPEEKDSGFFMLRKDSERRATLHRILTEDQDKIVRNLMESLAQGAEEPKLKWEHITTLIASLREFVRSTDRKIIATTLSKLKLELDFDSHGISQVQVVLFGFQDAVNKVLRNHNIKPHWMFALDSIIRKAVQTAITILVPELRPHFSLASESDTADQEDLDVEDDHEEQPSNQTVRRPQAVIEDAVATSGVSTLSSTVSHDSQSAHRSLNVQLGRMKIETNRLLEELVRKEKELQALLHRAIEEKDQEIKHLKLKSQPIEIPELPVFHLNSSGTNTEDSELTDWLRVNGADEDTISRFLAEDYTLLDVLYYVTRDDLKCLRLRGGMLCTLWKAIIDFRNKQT
Experiment [3] concerns the target 5-hydroxytryptamine receptor 1A (Homo sapiens) (UniProt P08908). Particulars: Compound concentration 10.0 uM.
In experiment [4] the target is Serine/threonine-protein kinase SIK3 (Homo sapiens) (UniProt Q9Y2K2). The conditions noted are these: Compound concentration 1000.0 nM.
Chain of Serine/threonine-protein kinase SIK3 (Homo sapiens) (Q9Y2K2 whole entry, looked up): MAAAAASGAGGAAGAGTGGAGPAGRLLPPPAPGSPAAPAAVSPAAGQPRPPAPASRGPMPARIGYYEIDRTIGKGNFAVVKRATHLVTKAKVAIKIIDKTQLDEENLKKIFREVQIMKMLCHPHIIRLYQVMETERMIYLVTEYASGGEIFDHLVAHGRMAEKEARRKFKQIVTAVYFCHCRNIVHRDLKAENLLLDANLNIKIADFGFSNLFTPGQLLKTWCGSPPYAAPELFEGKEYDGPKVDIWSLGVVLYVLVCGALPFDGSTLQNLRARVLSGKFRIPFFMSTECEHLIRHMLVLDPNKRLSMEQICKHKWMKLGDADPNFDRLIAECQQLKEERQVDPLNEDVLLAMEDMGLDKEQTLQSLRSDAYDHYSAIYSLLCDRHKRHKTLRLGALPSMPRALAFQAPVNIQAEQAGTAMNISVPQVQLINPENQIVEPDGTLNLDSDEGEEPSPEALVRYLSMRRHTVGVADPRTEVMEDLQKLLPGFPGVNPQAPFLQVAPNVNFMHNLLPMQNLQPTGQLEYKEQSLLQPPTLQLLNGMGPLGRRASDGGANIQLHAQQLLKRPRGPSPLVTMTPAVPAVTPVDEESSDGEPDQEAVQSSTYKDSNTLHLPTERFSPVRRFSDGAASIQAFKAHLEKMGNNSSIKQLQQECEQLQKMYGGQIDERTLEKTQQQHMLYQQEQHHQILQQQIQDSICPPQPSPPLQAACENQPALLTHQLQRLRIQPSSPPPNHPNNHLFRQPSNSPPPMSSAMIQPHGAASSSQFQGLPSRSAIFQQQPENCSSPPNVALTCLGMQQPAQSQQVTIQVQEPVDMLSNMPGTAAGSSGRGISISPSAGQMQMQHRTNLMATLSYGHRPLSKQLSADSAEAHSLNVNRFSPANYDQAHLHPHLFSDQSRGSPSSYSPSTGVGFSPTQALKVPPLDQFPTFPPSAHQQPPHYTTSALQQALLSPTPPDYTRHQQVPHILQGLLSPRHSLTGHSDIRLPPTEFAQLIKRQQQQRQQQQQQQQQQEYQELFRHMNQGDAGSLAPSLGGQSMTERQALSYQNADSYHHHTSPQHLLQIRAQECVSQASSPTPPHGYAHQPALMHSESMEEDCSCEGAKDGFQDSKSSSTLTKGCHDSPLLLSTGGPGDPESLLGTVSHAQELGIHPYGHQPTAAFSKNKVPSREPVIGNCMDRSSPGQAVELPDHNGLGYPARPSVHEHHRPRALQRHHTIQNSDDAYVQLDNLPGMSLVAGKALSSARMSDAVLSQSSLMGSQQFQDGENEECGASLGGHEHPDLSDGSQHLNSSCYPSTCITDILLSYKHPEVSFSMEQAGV
For experiment [5], the target named is Beta-3 adrenergic receptor (Homo sapiens) (UniProt P13945). Particulars: Compound concentration 10.0 uM.
In experiment [6] the target is Muscarinic acetylcholine receptor M2 (Homo sapiens) (UniProt P08172). Particulars: Compound concentration 10.0 uM.
Experiment [7] deals with Serine/threonine-protein kinase PLK1 (Homo sapiens) (UniProt P53350). Particulars: Compound concentration 1000.0 nM.
Experiment [8] concerns the target Muscarinic acetylcholine receptor M1 (Homo sapiens) (UniProt P11229). Particulars: Compound concentration 10.0 uM.
The target of experiment [9] is Alpha-1B adrenergic receptor (Homo sapiens) (UniProt P35368). Particulars: Compound concentration 10.0 uM.
Chain of Alpha-1B adrenergic receptor (Homo sapiens) (P35368 whole entry): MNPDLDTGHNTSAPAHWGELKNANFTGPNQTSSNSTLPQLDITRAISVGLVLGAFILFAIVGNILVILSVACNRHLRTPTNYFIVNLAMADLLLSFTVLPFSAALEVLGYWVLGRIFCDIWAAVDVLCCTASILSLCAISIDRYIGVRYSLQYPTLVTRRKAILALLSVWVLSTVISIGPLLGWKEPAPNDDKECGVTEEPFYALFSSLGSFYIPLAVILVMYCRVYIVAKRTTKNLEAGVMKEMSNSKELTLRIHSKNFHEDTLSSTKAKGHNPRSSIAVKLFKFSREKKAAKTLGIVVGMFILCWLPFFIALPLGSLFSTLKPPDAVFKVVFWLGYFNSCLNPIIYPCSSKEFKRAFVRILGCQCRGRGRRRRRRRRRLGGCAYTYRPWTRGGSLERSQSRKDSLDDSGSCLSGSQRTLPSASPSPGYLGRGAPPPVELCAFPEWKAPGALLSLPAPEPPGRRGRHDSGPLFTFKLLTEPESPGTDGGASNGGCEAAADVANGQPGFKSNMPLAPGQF
In experiment [10] the target is Wee1-like protein kinase 2 (Homo sapiens) (UniProt P0C1S8). The conditions noted are these: Compound concentration 1000.0 nM.
Chain of Wee1-like protein kinase 2 (Homo sapiens) (P0C1S8 whole entry, looked up): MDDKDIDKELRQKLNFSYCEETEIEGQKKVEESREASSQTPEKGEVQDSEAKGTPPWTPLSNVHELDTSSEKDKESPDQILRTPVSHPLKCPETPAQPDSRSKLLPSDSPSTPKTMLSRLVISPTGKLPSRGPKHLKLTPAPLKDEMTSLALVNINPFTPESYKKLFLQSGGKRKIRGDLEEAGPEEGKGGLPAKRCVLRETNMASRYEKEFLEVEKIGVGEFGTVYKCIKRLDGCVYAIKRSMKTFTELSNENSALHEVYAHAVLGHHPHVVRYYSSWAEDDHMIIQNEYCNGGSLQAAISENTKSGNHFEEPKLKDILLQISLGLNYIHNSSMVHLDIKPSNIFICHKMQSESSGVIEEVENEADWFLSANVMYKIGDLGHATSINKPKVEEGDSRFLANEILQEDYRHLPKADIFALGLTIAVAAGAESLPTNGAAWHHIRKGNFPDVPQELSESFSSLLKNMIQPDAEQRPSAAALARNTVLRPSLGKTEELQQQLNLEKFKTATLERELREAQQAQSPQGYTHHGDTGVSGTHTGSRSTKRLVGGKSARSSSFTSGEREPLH
Experiment [11] deals with Beta-1 adrenergic receptor (Homo sapiens) (UniProt P08588). Particulars: Compound concentration 10.0 uM.
In experiment [12] the target is 5-hydroxytryptamine receptor 6 (Homo sapiens) (UniProt P50406). Particulars: Compound concentration 10.0 uM.
Chain of 5-hydroxytryptamine receptor 6 (Homo sapiens) (P50406 whole entry): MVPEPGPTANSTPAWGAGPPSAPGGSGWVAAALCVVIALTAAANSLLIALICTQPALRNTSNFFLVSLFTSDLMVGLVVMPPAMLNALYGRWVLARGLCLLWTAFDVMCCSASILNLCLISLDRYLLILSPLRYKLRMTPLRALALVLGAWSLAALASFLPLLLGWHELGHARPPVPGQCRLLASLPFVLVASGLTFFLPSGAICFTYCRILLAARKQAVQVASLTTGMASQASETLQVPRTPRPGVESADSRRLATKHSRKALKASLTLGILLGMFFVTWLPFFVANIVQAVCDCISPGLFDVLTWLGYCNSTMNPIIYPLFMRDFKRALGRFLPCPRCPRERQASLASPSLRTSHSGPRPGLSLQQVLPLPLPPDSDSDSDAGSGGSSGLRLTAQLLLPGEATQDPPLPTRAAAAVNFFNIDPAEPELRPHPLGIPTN
The target in experiment [13] is Diacylglycerol O-acyltransferase 1 (Homo sapiens, UniProt O75907). Put plainly: Thin Layer Chromatography (TLC) assay (human DGAT1).
In experiment [14] the target is Alpha-1A adrenergic receptor (Homo sapiens) (UniProt P35348). The conditions noted are these: Compound concentration 10.0 uM.
Experiment [15] concerns the target Muscarinic acetylcholine receptor M3 (Homo sapiens) (UniProt P20309). The conditions noted are these: Compound concentration 10.0 uM.
The target of experiment [16] is 5-hydroxytryptamine receptor 1D (Homo sapiens, UniProt P28221). Put plainly: GPCRScan assay: inhibition of 5-HT1D. Also noted: radioligand conc. used [nm] 1.0 – 2.0, parental cells HEKT.
Chain of 5-hydroxytryptamine receptor 1D (P28221 whole entry): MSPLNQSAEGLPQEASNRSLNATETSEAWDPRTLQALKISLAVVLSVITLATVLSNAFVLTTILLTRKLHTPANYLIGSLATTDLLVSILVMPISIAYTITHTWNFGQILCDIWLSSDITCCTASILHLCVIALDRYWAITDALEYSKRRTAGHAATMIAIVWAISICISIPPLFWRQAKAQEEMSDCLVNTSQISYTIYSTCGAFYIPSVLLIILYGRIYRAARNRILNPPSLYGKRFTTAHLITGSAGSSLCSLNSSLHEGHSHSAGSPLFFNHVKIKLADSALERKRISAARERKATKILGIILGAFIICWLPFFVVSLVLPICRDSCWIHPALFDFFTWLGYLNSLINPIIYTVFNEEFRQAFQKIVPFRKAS
In experiment [17] the target is Alpha-2C adrenergic receptor (Homo sapiens) (UniProt P18825). Particulars: Compound concentration 10.0 uM.
The target of experiment [18] is Sigma intracellular receptor 2 (Homo sapiens, UniProt Q5BJF2). Nature of the experiment: GPCRScan assay: inhibition of Sigma 2. More on the design: radioligand conc. used [nm] 5.0, parental cells HEKT.
Experiment [19] has as its target Diacylglycerol O-acyltransferase 2-like protein MOGAT2 (Homo sapiens) (UniProt Q3SYC2). Nature of the experiment: RapidFire/MS assay (human MGAT2).
For experiment [20], the target named is Diacylglycerol O-acyltransferase 2 (Homo sapiens, UniProt Q96PD7). Put plainly: Thin Layer Chromatography (TLC) assay (human DGAT2).
The target of a further experiment is Mogat2 (Mus musculus). Nature of the experiment: RapidFire/MS assay (mouse MGAT2).
Experiment [21] addresses 5-hydroxytryptamine receptor 2C (Homo sapiens) (UniProt P28335). Particulars: Compound concentration 10.0 uM.
For experiment [22], the target named is Sigma non-opioid intracellular receptor 1 (Homo sapiens) (UniProt Q99720). The conditions noted are these: Compound concentration 10.0 uM.
Experiment [23] has as its target Alpha-2A adrenergic receptor (Homo sapiens) (UniProt P08913). The conditions noted are these: Compound concentration 10.0 uM.

Chain of Casein kinase I isoform alpha (Homo sapiens) (P48729 2-337 limits assumed): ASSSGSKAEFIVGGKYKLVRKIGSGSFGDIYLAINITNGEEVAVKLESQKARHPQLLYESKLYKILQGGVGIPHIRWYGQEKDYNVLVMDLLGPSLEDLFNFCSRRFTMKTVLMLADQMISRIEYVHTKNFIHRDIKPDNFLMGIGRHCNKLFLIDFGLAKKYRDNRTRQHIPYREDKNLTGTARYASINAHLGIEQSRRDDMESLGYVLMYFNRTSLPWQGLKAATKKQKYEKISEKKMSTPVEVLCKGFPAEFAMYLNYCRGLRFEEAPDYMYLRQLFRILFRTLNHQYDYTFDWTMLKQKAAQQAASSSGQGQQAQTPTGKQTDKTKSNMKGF

One may read the inhibition as the drop in the measured response relative to a control, in per cent. Regarding `Nc1cnc(N2CCc3cc(S(=O)(=O)Nc4c(F)cc(Cl)cc4F)cc(N4CCCC4=O)c32)nc1`, the residual activity in experiment [1] was 100%; in experiment [2] it was 83%; in experiment [4], 83%; in [7], 100%; in experiment [10], 93%. The inhibition is 4.45% in experiment [3]; -2.69% in experiment [5]; 3.7% in experiment [6]; -9.48% in [8]; 4.68% in [9]; 8.84% in experiment [11].

A word on the IC50: it is the concentration that inhibits the measured activity by half. Consider `Cn1nc(C(F)(F)F)cc1-c1cnc(N2CCc3cc(S(=O)(=O)Nc4c(F)cc(Cl)cc4F)cc(N4CCCC4=O)c32)nc1` [TP-020], for which the residual activity was 86% in [1]; 100% in [2]; 94% in experiment [4]; 93% in [7]; 100% in experiment [10]. Further, the inhibition in [12] was 6.67%; in experiment [14], 6.96%; in [15], 7.26%; in experiment [17], 17.9%; in experiment [9] it was 4.33%; in experiment [21] it was 31%. Besides, the inhibition in experiment [22] is 12.8%; in [23] it was -9.1%. Also, the 50% inhibitory concentration (IC50) in experiment [13] was > 30 µM (not active); in experiment [19] it was 0.0078 µM (active); in experiment [20], > 30 µM (not active); on Mogat2 (Mus musculus), 0.0024 µM (active). Moreover, the Ki in experiment [16] (read-out: Ki) is 4.66 µM; in [16] (read-out: pKi (converted)), 4.57 µM; in [18], 10 µM.
